What follows are compounds tested on AMPK (assay: AMPK activation assay (enzyme-linked immunosorbent assay)).
Format: cell-based
In short: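 Compounds were tested for their capacity to activate the kinase using standard, commercially available kit reagents and procedures.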

Row | EC50 [nM] | Compound
1 | < 500 | COc1ccc(OC2CCN(C(=O)c3ccc(C(=O)Nc4ccc(Oc5ccc(F)cc5)nc4)nc3)CC2)cc1 [Compound 70, 5-(4-(4-methoxyphenoxy)piperidine-1-carbonyl)-N-(6-(4-fluorophenoxy)pyridin-3-yl)picolinamide]
2 | < 500 | Cc1ccc(Oc2ccc(NC(=O)c3ccc(C(=O)N4CCN(Cc5ccc(F)cc5)CC4)cn3)cc2)cc1 [Compound 53, 5-(4-(4-fluorobenzyl)piperazine-1-carbonyl)-N-(4-(4-methylphenoxy)phenyl)picolinamide]
3 | < 500 | COc1ccc(C(=O)C2CCN(C(=O)c3ccc(C(=O)NC4CCN(Cc5ccc([N+](=O)[O-])cc5)CC4)cn3)CC2)cc1 [Compound 373, 6-(4-(4-methoxybenzoyl)piperidine-1-carbonyl)-N-(1-(4-nitrobenzyl)piperidin-4-yl)nicotinamide]
4 | 1000 to 5000 | N#Cc1ccc(O[C@H]2CC[C@@H](NC(=O)c3ccc(C(=O)N4CC[C@H](Oc5ccc(F)cc5)C4)cn3)CC2)cc1 [Compound 176, N-((cis)-4-(4-cyanophenoxy)cyclohexyl)-5-((S)-3-(4-fluorophenoxy)pyrrolidine-1-carbonyl)picolinamide]
5 | 500 to 1000 | N#Cc1cccc(-c2ccc(NC(=O)c3ccc(C(=O)N4CCN(Cc5ccc(F)cc5)CC4)cn3)cc2)c1 [Compound 32, N-(4-(3-cyanophenyl)phenyl)-5-(4-(4-fluorobenzyl)piperazine-1-carbonyl)picolinamide]
6 | < 500 | O=C(Nc1ccc(Oc2ccc(F)cc2)nc1)c1ccc(C(=O)N2CCC(C(=O)c3ccc(F)cc3F)CC2)cn1 [Compound 342, 5-(4-(2,4-difluorobenzoyl)piperidine-1-carbonyl)-N-(6-(4-fluorophenoxy)pyridin-3-yl)picolinamide]
7 | < 500 | CSc1ccc(C(=O)C2CCN(C(=O)c3ccc(C(=O)NC4CCN(Cc5ccc(C#N)cc5)CC4)nc3)CC2)cc1 [Compound 372, N-(1-(4-cyanobenzyl)piperidin-4-yl)-5-(4-(4-(methylthio)benzoyl)piperidine-1-carbonyl)picolinamide]
8 | < 500 | COc1ccc(C(=O)C2CCN(C(=O)c3cnc(C(=O)Nc4ccc(Oc5ccc(F)cc5)nc4)cn3)CC2)cc1 [Compound 204, N-(6-(4-fluorophenoxy)pyridin-3-yl)-5-(4-(4-methoxybenzoyl)piperidine-1-carbonyl)pyrazine-2-carboxamide]
9 | < 500 | O=C(Nc1ccc(Oc2ccc(F)cc2)nc1)c1ccc(C(=O)N2CCC(Oc3cccc(NC(=O)C4CC4)c3)CC2)nc1 [Compound 433, 6-(4-(3-(cyclopropanecarboxamido)phenoxy)piperidine-1-carbonyl)-N-(6-(4-fluorophenoxy)pyridin-3-yl)nicotinamide]
10 | < 500 | N#Cc1ccc(CN2CCC(NC(=O)c3ccc(C(=O)N4CCC(C(=O)c5ccc(F)cc5F)CC4)nc3)CC2)cc1 [Compound 346, N-(1-(4-cyanobenzyl)piperidin-4-yl)-6-(4-(2,4-difluorobenzoyl)piperidine-1-carbonyl)nicotinamide]
11 | < 500 | COc1ccc(C(=O)C2CCN(C(=O)c3ccc(C(=O)NC4CCN(Cc5cc(F)cc(F)c5)CC4)nc3)CC2)cc1 [Compound 287, N-(1-(3,5-difluorobenzyl)piperidin-4-yl)-5-(4-(4-methoxybenzoyl)piperidine-1-carbonyl)picolinamide]
12 | > 10000 | CS(=O)(=O)Nc1ccc(CN2CCC(NC(=O)c3ccc(C(=O)N4CCC(C(=O)c5ccc(F)cc5F)CC4)nc3)CC2)cc1 [Compound 216, 6-(4-(2,4-difluorobenzoyl)piperidine-1-carbonyl)-N-(1-(4-(methylsulfonamido)benzyl)piperidin-4-yl)nicotinamide]
13 | < 500 | N#Cc1ccc(Oc2ccc(NC(=O)c3ccc(C(=O)N4CCC(Oc5ccc(S(F)(F)(F)(F)F)cc5)CC4)nc3)cn2)cc1 [Compound 497, N-(6-(4-cyanophenoxy)pyridin-3-yl)-6-(4-(4-(pentafluorosulfanyl)phenoxy)piperidine-1-carbonyl)nicotinamide]

Continued, compound first:

Row | Compound | EC50 [nM]
14 | N#Cc1ccc(OC2CCN(C(=O)c3ccc(C(=O)NC4CCN(c5ccc(C#N)cc5)CC4)cn3)CC2)cc1 [Compound 418, 6-(4-(4-cyanophenoxy)piperidine-1-carbonyl)-N-(1-(4-cyanophenyl)piperidin-4-yl)nicotinamide] | < 500
15 | O=C(c1ccc(Nc2ccc(-c3ccccc3)cc2)nc1)N1CCN(Cc2ccc(F)cc2)CC1 [Compound 37, (6-(4-phenylphenylamino)pyridin-3-yl)(4-(4-fluorobenzyl)piperazin-1-yl)methanone] | 5000 to 10000
16 | N#Cc1ccc(CN2CCC(NC(=O)c3ccc(C(=O)NC4CCN(Cc5ccc(C#N)cc5)CC4)nn3)CC2)cc1 [Compound 386, N3,N6-bis(1-(4-cyanobenzyl)piperidin-4-yl)pyridazine-3,6-dicarboxamide] | > 10000
17 | O=C(c1ccc(Nc2cccc(-c3ccccc3)c2)nc1)N1CCN(Cc2ccc(F)cc2)CC1 [Compound 33, (6-(3-phenylphenylamino)pyridin-3-yl)(4-(4-fluorobenzyl)piperazin-1-yl)methanone] | 5000 to 10000
18 | O=C(c1cccc(C(=O)N2CCN(Cc3ccc(F)cc3)CC2)n1)N1CCN(CCc2ccccc2)CC1 [Compound 93, (4-(4-fluorobenzyl)piperazin-1-yl)(6-(4-phenethylpiperazine-1-carbonyl)pyridin-2-yl)methanone] | > 10000
19 | COc1ccc(C(=O)N2CCN(C(=O)c3ccc(C(=O)NC4CCN(Cc5ccc(C#N)cc5)CC4)nc3)CC2)cc1 [Compound 77, N-(1-(4-cyanobenzyl)piperidin-4-yl)-5-(4-(4-methoxybenzoyl)piperazine-1-carbonyl)picolinamide] | < 500
20 | O=C(NC1CCN(C(=O)c2ccccc2)CC1)c1ccc(C(=O)N2CCN(Cc3ccc(F)cc3)CC2)cn1 [Compound 8, N-(1-(benzoyl)piperidin-4-yl)-5-(4-(4-fluorobenzyl)piperazine-1-carbonyl)picolinamide] | < 500
21 | CS(=O)(=O)c1ccc(OC2CCN(C(=O)c3ccc(C(=O)NC4CCN(Cc5ccc(N6CCCC6)cc5)CC4)nc3)CC2)cc1 [Compound 208, 5-(4-(4-(methylsulfonyl)phenoxy)piperidine-1-carbonyl)-N-(1-(4-(pyrrolidin-1-yl)benzyl)piperidin-4-yl)picolinamide] | < 500
22 | COc1cccc(CC2CCN(C(=O)c3ccc(C(=O)NC4CCN(Cc5ccc(C#N)cc5)CC4)nc3)CC2)c1 [Compound 147, N-(1-(4-cyanobenzyl)piperidin-4-yl)-5-(4-(3-methoxybenzyl)piperidine-1-carbonyl)picolinamide] | < 500
23 | COc1ccc(C(=O)C2CCN(c3ccc(C(=O)NC4CCN(Cc5ccc(C#N)cc5)CC4)nn3)CC2)cc1 [Compound 362, N-(1-(4-cyanobenzyl)piperidin-4-yl)-6-(4-(4-methoxybenzoyl)piperidin-1-yl)pyridazine-3-carboxamide] | < 500
24 | N#Cc1ccc(CN2CCC(NC(=O)c3ccc(C(=O)N4CCC(Oc5ccc(F)cc5F)CC4)nc3)CC2)cc1 [Compound 345, N-(1-(4-cyanobenzyl)piperidin-4-yl)-6-(4-(2,4-difluorophenoxy)piperidine-1-carbonyl)nicotinamide] | < 500
25 | N#Cc1ccc(CN2CCC(NC(=O)c3ccc(C(=O)N4CCN(Cc5ccc(F)cc5)CC4)nc3)CC2)cc1 [Compound 1] | < 500
26 | N#Cc1ccc(CN2CCC(NC(=O)c3ccc(C(=O)N4CCC(Cc5ccc(C(N)=O)cc5)CC4)cn3)CC2)cc1 [Compound 141, 5-(4-(4-carbamoylbenzyl)piperidine-1-carbonyl)-N-(1-(4-cyanobenzyl)piperidin-4-yl)picolinamide] | 500 to 1000
27 | N#Cc1ccc(CN2CCC(NC(=O)c3ccc(C(=O)N4CCC(S(=O)(=O)c5ccc(F)cc5)CC4)cn3)CC2)cc1 [Compound 262, N-(1-(4-cyanobenzyl)piperidin-4-yl)-5-(4-(4-fluorophenylsulfonyl)piperidine-1-carbonyl)picolinamide] | < 500
28 | CC(c1ccccc1)N1CCC(NC(=O)c2ccc(C(=O)N3CCN(Cc4ccc(F)cc4)CC3)cn2)CC1 (centres unmarked) [Compound 18, 5-(4-(4-fluorobenzyl)piperazine-1-carbonyl)-N-(1-(1-phenylethyl)piperidin-4-yl)picolinamide] | < 500
29 | CS(=O)(=O)c1ccc(CN2CCC(NC(=O)c3ccc(C(=O)N4CCC(C(=O)c5ccc(F)cc5F)CC4)nc3)CC2)cc1 [Compound 213, 6-(4-(2,4-difluorobenzoyl)piperidine-1-carbonyl)-N-(1-(4-(methylsulfonyl)benzyl)piperidin-4-yl)nicotinamide] | < 500
30 | N#Cc1ccc(CN2CCC(NC(=O)c3ccc(-c4cn(Cc5ccccc5)nn4)cn3)CC2)cc1 [Compound 121, 5-(1-benzyl-1H-1,2,3-triazol-4-yl)-N-(1-(4-cyanobenzyl)piperidin-4-yl)picolinamide] | 1000 to 5000
31 | O=C(Nc1cccc(-c2ccccc2)c1)c1ccc(C(=O)NC2CCN(Cc3ccccc3)CC2)nc1 [Compound 106, N2-(1-benzylpiperidin-4-yl)-N5-(biphenyl-3-yl)pyridine-2,5-dicarboxamide] | 5000 to 10000
32 | CS(=O)(=O)c1ccc(C(=O)C2CCN(C(=O)c3ccc(C(=O)N[C@@H]4CCN(Cc5ccc(C#N)cc5)C[C@H]4F)nc3)CC2)cc1 (relative stereo) [Compound 252, N-((trans)-1-(4-cyanobenzyl)-3-fluoropiperidin-4-yl)-5-(4-(4-(methylsulfonyl)benzoyl)piperidine-1-carbonyl)picolinamide] | 500 to 1000
33 | N#Cc1ccc(CN2CCC(NC(=O)c3cccc(C(=O)NC4CCN(Cc5ccc(C#N)cc5)CC4)n3)CC2)cc1 [Compound 86, N2,N6-bis(1-(4-cyanobenzyl)piperidin-4-yl)pyridine-2,6-dicarboxamide] | 1000 to 5000
34 | CC1(C)CN(C(=O)c2ccc(C(=O)NC3CCN(Cc4ccc(C#N)cc4)CC3)nc2)CCN1Cc1ccc(F)cc1 [Compound 125, N-(1-(4-cyanobenzyl)piperidin-4-yl)-5-(4-(4-fluorobenzyl)-3,3-dimethylpiperazine-1-carbonyl)picolinamide] | < 500
35 | N#Cc1ccc(-c2ccc(Nc3ccc(C(=O)NC4CCN(Cc5ccccc5)CC4)nc3)cc2)cc1 [Compound 119, N-(1-benzylpiperidin-4-yl)-5-(4′-cyanobiphenyl-4-ylamino)picolinamide] | 1000 to 5000

Reference: patent publication US20150087673A1, “METHODS FOR USING AND BIOMARKERS FOR AMPK-ACTIVATING COMPOUNDS” (RIGEL PHARMACEUTICALS, INC., priority 2013, published 2015)
